This is an account of results in article PMC4537286, “Permeation of Therapeutic Drugs in Different Formulations across the Airway Epithelium In Vitro” (PLoS ONE, 2015).

Structures can show the parent of a compound that is named as a salt. Where two headings read alike, the source gives them in different places.

The nature of data set [1]: in vitro. The settings on record: human, pH 7.4, Papp.
Data set [2] has as its system Calu-3 cells. The settings on record: human, pH 7.4.
Data set [3] concerns Calu-3 cells.
Procedure: (§1) 0.5 x 10^6 Calu-3 cells (passage 32–38) were seeded per membrane and different exposure systems were used (Fig A in S1 File). To discriminate between the different exposures, the following terminology is used. Cultures with cells supplied with medium only from the basolateral side are termed air-liquid interface culture. In submersed liquid exposure (SLE) cells are cultured in submersion and exposed with compound dissolved in buffer. In the air liquid exposure (ALE) cells are cultured at an air-liquid interface and the compound dissolved in buffer is applied to the cells. For air-liquid interface deposition (AID) cells are cultured at an air-liquid interface and exposed to the compound applied as liquid aerosols by MicroSprayer IA-1C Aerosolizer (AID_M) or as powder aerosols by DP-4 Dry Powder Insufflator (AID_D). For comparison of the different exposure systems Calu-3 cells cultured for 11 days on 3 μm 12-well insert (Greiner Bio-One) were used.
(§2) For SLE and ALE exposures the apical compartment was filled with 500 μL and the basolateral compartment with 1500 μL. […] For AID studies the basal compartment was filled with 700 μl, and 200 μl of drug dissolved in Krebs-Ringer buffer were sprayed on each Transwell insert using the MicroSprayer IA-1C Aerosolizer (AID_M exposure). […] 100 μl samples from the basolateral compartment were taken at 0–30–60–90–120 min and replaced with pre-warmed Krebs-Ringer buffer. […] At the end of the SLE and ALE studies the content of the basolateral compartment and 10 μl of the apical compartment were collected. […] The total volume of this solution was determined and this value minus the added 100 μl used for calculations of drug concentrations. The entire content of the basolateral compartment and 10 μl of the apical compartment were collected.
(§3) The MicroSprayer IA-1C Aerosolizer (PennCentury Inc., Wyndmoor, PA) was used to mimic nebulization of the compounds. The device consists of a thin, flexible, stainless steel tube measuring 0.64 mm in diameter and 50.8 cm in length attached to the light, hand-operated, high-pressure syringe FMJ-250. A unique patented atomizer at the very tip of the tube generates the aerosol with a mass median diameter of 16–22 μm (http://www.penncentury.com/products/IA_1C.php). The device was fixed at a distance of 11 cm between tip of the MicroSprayer and the rim of the exposure plate. Inserts were transferred to a separate (exposure) plate to avoid contamination of the adjacent inserts and 200 μl of the aerosol were applied per well (Fig B, a in S1 File). After the treatment the insert was replaced into the original plate for transport studies. The device was cleaned with 70% ethanol and aqua dest. at the end of the experiments and dried at 60°C overnight.
(§4) Damage of monolayer integrity was interpreted as difference between TEER values before and after the experiments > 100 Ω*cm^2.
Data set [4] relates to Calu-3 cells. Briefly: Transport of aerosolized compounds across Calu-3 monolayers (AID_M MicroSprayer, AID_D DP-4 insufflator). The note with it: for Dye transport relative to SLE: application with DP-4 Dry Powder Insufflator (AID_D); for Dye transport relative to SLE incubation: application with MicroSprayer IA-1C Aerosolizer (AID_M).
Procedure: as §1, §2, §3, §4
Data set [5] is described as follows: Size of particles delivered by DP-4 Dry Powder Insufflator, bright-field microscopy. The note with it: roughly spherical particles. The format is physicochemical. As for the experimental part: Particles that were delivered by the DP-4 Dry Powder Insufflator were analyzed by bright-field microscopy. […] Sizes were measured using Cell^D Imaging software (Olympus).

The test system of data set [6] is Calu-3 cells. The experiment in a line: Transport studies across Calu-3 monolayers, compounds applied in solution (SLE, ALE), Papp.
Assay in data set [7]: as above
The settings on record: human; for Papp at 120 min, 10 μg/ml: pH 7.4, Papp values for fluorescein, n = 12.

In data set [8] the test system is Calu-3 cells. The note with it: cited from earlier work; for Papp values of rhodamine 123 reported: ref [68],[70].
The mark [9] stands for this setting: pH 7.4, Papp, SLE (submersed culture, compound in buffer), n = 4.
Setting [10] is: pH 7.4, Papp, ALE (air-liquid interface culture, compound in buffer), n = 4.

Regarding `COc1ccc(CC(C)NCC(O)c2ccc(O)c(NC=O)c2)cc1` (stereo not shown) [Formoterol, formoterol fumarate dihydrate], the Papp in data set [1] was 2.98 ± 0.79 ×10⁻⁶ cm/s. Moreover, in data set [2], the Papp is on record as 1.72±0.24 10^−6 cm/s and the “Ratio Papp (ALE/ SLE)” value turned out to be 1.73. The “Transport in the fixed dose combination Symbicort versus applied alone” value in data set [3] is recorded as “significantly higher”.
With `CCCC1O[C@@H]2C[C@H]3[C@@H]4CCC5=CC(=O)C=C[C@]5(C)[C@H]4[C@@H](O)C[C@]3(C)[C@]2(C(=O)CO)O1` (stereo partly shown) [Budesonide, budesonide], the “Transport in the fixed dose combination Symbicort versus applied alone” value in data set [4] (DP-4 Dry Powder Insufflator (AID_D), n = 3) is reported as “no differences”. The “Size of delivered single particles” value in data set [5] turned out to be 3.2± 1.3 μm. Further, in data set [6], the “Ratio Papp (ALE/ SLE)” value came to 1.36. The “Amount of budesonide in the cells” value in data set [6] (cell lysis after the last sample, total recovered amount 19.3±0.7 μg) amounted to 0.96 µg. In data set [6] (solution, SLE and ALE, mixture 50 μM budesonide and 0.5 mM formoterol fumarate), the “Change of budesonide transport on co-incubation with formoterol” value was “did not show changes”. For the same compound, the Papp at 120 min turned out to be 17.9 ± 1.36 ×10⁻⁶ cm/s in data set [7] (pH 7.4) and 13.18 ± 0.06 ×10⁻⁶ cm/s in data set [7] (setting [9]).
As to `COC(=O)c1ccccc1-c1c2ccc(=N)cc-2oc2cc(N)ccc12` [Rhodamine 123, rhodamine 123], the “Dye transport relative to SLE” value in data set [4] was 48.2 times. Besides, the “Dye transport relative to SLE incubation” value in data set [4] amounted to 3.2 times. Moreover, the “Papp values of rhodamine 123 reported” value in data set [8] (ALE) is 2.27 ×10⁻⁶ cm/s; in data set [8] (SLE), 0.49 ×10⁻⁶ cm/s. The “Ratio Papp (ALE/ SLE)” value in data set [6] is listed as 3.86. Also, the Papp at 120 min stood at 0.27 ± 0.09 ×10⁻⁶ cm/s in data set [7] (setting [10]) and 0.07 ± 0.02 ×10⁻⁶ cm/s in data set [7] (setting [9]).
Consider `O=C1OC2(c3ccc(O)cc3Oc3cc(O)ccc32)c2ccccc21` [Fluorescein, Sodium fluorescein], for which the “Dye transport relative to SLE” value in data set [4] was found to be 131.7 times. Further, in data set [4], the “Dye transport relative to SLE incubation” value amounted to 4.3 times. Also, the “Size of delivered single particles” value in data set [5] is 1.1±0.3 μm. Also, the “Papp values of fluorescein published by other groups” value in data set [8] (SLE, ref [8],[41],[49],[65]–[69]) was 0.1 x 10–6 cm/s. Moreover, the “Ratio Papp (ALE/ SLE)” value in data set [6] was determined as 3.00. In addition, the Papp at 120 min, 10 μg/ml was determined as 0.23 ± 0.04 ×10⁻⁶ cm/s in data set [7] (Air-liquid interface culture, 0.4 μm pores); 0.27 ± 0.08 ×10⁻⁶ cm/s in data set [7] (Air-liquid interface culture, 3 μm pores); 0.09 ± 0.04 ×10⁻⁶ cm/s in data set [7] (Submersed culture, 3 μm pores). Also, the values for the Papp at 120 min in data set [7] (setting [10]) and in data set [7] (setting [9]) were 0.27 ± 0.08 ×10⁻⁶ cm/s and 0.09 ± 0.04 ×10⁻⁶ cm/s, respectively.
